Measurements as given in patent publication US20230263807A1, “TREPROSTINIL ILOPROST COMBINATION THERAPY” (United Therapeutics Corporation, priority 2022, published 2023).
Read-outs that look alike come from different tables or passages of the source.

Experimental: The solubility of iloprost at 100 μg/mL was evaluated at five different pH levels by visual inspection and HPLC-UV analysis. A stock solution of Iloprost was prepared in ethanol at 1 mg/mL. The stock solution was diluted 10-fold in each buffer and mixed well. The buffered solutions were visually inspected for any precipitation. The buffered solutions were filtered with 0.45 μm nylon filters prior to analysis by HPLC.

In the case of CC#CCC(C)[C@H](O)/C=C/[C@@H]1[C@H]2C/C(=C/CCCC(=O)O)C[C@H]2C[C@H]1O (stereo partly shown) [Iloprost], the “Final pH” value (100 μg/mL Iloprost in 10 mM Acetate, initial pH 5.00) is reported as 5.08, the “Final pH” value (100 μg/mL Iloprost in 10 mM Citrate, initial pH 2.89) is reported as 2.99 and the “Final pH” value (100 μg/mL Iloprost in 10 mM Phosphate, initial pH 6.23) is reported as 6.36. The “Final pH” value (100 μg/mL Iloprost in 10 mM Phosphate, initial pH 7.27) was 7.42, the “Final pH” value (100 μg/mL Iloprost in 10 mM Phosphate, initial pH 8.60) was 8.59 and the “solubility by chromatographic analysis” value (pH 2.89) was “potential solubility issues below pH 6”. The visual solubility (pH 2.89) was “No visual solubility issues”.
